In patent US20240207292A1, “BORONIC ACID COMPOUNDS, COMPOSITIONS AND METHODS” (Trustees of Tufts College, priority 2021, published 2024):

Columns and labels:
[1] = lyophilized powder reconstituted before administration; cited from earlier work
[2] = Stability of bortezomib with excipients in water, propyleneglycol (PG) or butylene glycol (BG) at 1 mg/mL, 50° C.; format: physicochemical; settings: in the absence of N-Acetyl-L-methionine
Method: In Examples 1-3 below, Tables 1, 2 and 3 summarize the effectiveness of sulfur compounds in stabilizing bortezomib such as against oxidation and decomposition reactions. For each of the following Examples 1-3, the following procedures were used: Samples preparation: 100 mg of the API (active pharmaceutical ingredient) was suspended into 100 mL of water or other ratioed solvents, mixed well by using a vortex mixer and sonicator (with gentle warm if necessary) to make a 1 mg/mL of solution A. 10 mg of each excipient was weighed into avial, and 1 mL of solution A was added, mixed well to give the test solution B (10:1 of excipient/API). Took 100 μL of solution B and diluted into 1 mL with solution A to give the test solution C (1:1 of excipient/API). Took 100 μL of solution C and diluted into 1 mL with solution A to give the test solution D (0.1:1 of excipient/API). For solid powderform of Bortezomib with the excipients, method in US 2005/0282742 A1 was adopted. […]
Aqueous formulations of bortezomib together with a number of sulfur-containing compounds in varying weight ratios were evaluated for stability over time based on purity of Bortezomib in water, propyleneglycol (PG) or butylene glycol (BG) at 1 mg/mL, 50° C.

## CC(C)C[C@H](NC(=O)[C@H](Cc1ccccc1)NC(=O)c1cnccn1)B(O)O [Bortezomib, reference compound]
[1]
  time the reconstituted solution is sufficiently stable: up to 8 hours
[2]
  decomposition of bortezomib: 67%
